Six molecules from PubChem BioAssay (NCI) can be followed below.

Among the test systems are DU-145 prostate; ACHN renal; KM12 colon; NCI-H522 lung; SNB-75 CNS; SF-539 CNS; COLO 205 colon; RXF 393 renal; 786-0 renal; OVCAR-5 ovarian.
Assay in all cases: growth of human tumour cells (NCI), 48 h

“And” between values parts separate entries of the source, which are not always exact repeats. Identical values can stand only once.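 Growth conditions: 96-well plates. Treatment: test compound, 48 hours, 5 concentrations. Analysis: linear interpolation between bracketing concentrations; unreached endpoints set to highest concentration. The concentration for 50% growth inhibition is given as GI50. TGI marks complete inhibition of growth.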

Regarding `CCOc1ccc(Nc2nc(-c3ccc4c(c3)NC(=O)CO4)cs2)cc1`, the GI50 in the assay with DU-145 prostate is 30800 nM; with ACHN renal, 6960 nM; in the assay with KM12 colon it was 11100 nM; in the assay with NCI-H522 lung it was 4270 nM; with SNB-75 CNS it was 18000 nM; in the assay with SF-539 CNS, 16100 nM. Further, the GI50 with COLO 205 colon was 11100 nM; in the assay on RXF 393 renal, 16100 nM; in the assay on 786-0 renal, 14300 nM; with OVCAR-5 ovarian, above 100000 nM. Further, the TGI with DU-145 prostate is above 100000 nM; in the assay on ACHN renal, above 100000 nM; in the assay with KM12 colon it was above 100000 nM; with NCI-H522 lung, 37100 nM; with SNB-75 CNS, above 100000 nM; with SF-539 CNS, above 100000 nM. Further, the TGI was 33600 nM in the assay on COLO 205 colon, 62400 nM in the assay on RXF 393 renal, above 100000 nM in the assay with 786-0 renal and above 100000 nM in the assay on OVCAR-5 ovarian.
Consider `CCCN1CCN(c2ccc3nc(-c4ccc5nc(-c6cc(OC)ccc6OC)[nH]c5c4)[nH]c3c2)CC1`, for which the GI50 in the assay on DU-145 prostate is 1890 nM; in the assay with ACHN renal it was 1690 nM; in the assay on KM12 colon it was 1860 nM; in the assay on NCI-H522 lung it was 1740 nM; with SNB-75 CNS it was 12800 nM; with SF-539 CNS, 14400 nM. In addition, the GI50 was 2170 nM in the assay with COLO 205 colon, 1650 nM in the assay on RXF 393 renal, 1930 nM with 786-0 renal and 17800 nM with OVCAR-5 ovarian. Besides, the TGI in the assay on DU-145 prostate is 3400 nM; with ACHN renal, 3060 nM; in the assay with KM12 colon it was 3460 nM; with NCI-H522 lung, 3680 nM; with SNB-75 CNS, 26200 nM; in the assay with SF-539 CNS, 28700 nM. Also, the TGI with COLO 205 colon stood at 4830 nM; with RXF 393 renal it was 3170 nM; in the assay with 786-0 renal, 3410 nM; in the assay on OVCAR-5 ovarian, 34200 nM.
Turning to `COc1cc2cc(C(=O)Nc3cc(N)c4ccccc4c3CCCl)[nH]c2c(OC)c1OC`, the GI50 with DU-145 prostate is 8.95 nM; in the assay on ACHN renal, 18.4 nM; in the assay with KM12 colon, 41.1 nM; in the assay with NCI-H522 lung, 15.3 nM; in the assay with SNB-75 CNS it was 65.6 nM; with SF-539 CNS it was 161 nM. For the same molecule, the GI50 is 69.4 nM in the assay with COLO 205 colon, 8.75 nM in the assay with RXF 393 renal, below 5 nM in the assay on 786-0 renal and 53.3 nM in the assay on OVCAR-5 ovarian. Moreover, the TGI in the assay on DU-145 prostate is 339 nM; in the assay on ACHN renal it was 130 nM; in the assay on KM12 colon, 667 nM; in the assay with NCI-H522 lung, 271 nM; in the assay on SNB-75 CNS, 202 nM; in the assay on SF-539 CNS it was above 50000 nM. Further, the TGI with COLO 205 colon was determined as 254 nM; with RXF 393 renal it was 21.9 nM; in the assay with 786-0 renal, 1090 nM; with OVCAR-5 ovarian, 2130 nM.
On to `Cn1nc(-c2ccccc2)nc1[N+](=O)[O-]`, for which the TGI with DU-145 prostate, in the assay on ACHN renal, in the assay on KM12 colon, in the assay on NCI-H522 lung, with SNB-75 CNS and with SF-539 CNS was above 10000 nM in each case. For the same molecule, the TGI with COLO 205 colon, with RXF 393 renal, in the assay on 786-0 renal and in the assay on OVCAR-5 ovarian was above 10000 nM each time.
Take `Nc1cc(-c2cccc(OC(F)(F)F)c2)nc2ccc(N3CCCC3)cc12`: the GI50 with DU-145 prostate is 45.8 nM and 44.6 nM and 37.7 nM; with ACHN renal, 90.3 nM and 101 nM and 107 nM; with KM12 colon, 38.6 nM and 33.3 nM and 37.2 nM; in the assay on NCI-H522 lung, 39.4 nM and 35.1 nM and 29.7 nM; with SNB-75 CNS, 42.7 nM and 52.5 nM and 49.5 nM; with SF-539 CNS, 35.8 nM and 37.2 nM and 35.4 nM. Moreover, the GI50 is 41 nM and 39.1 nM and 35.7 nM with COLO 205 colon; 47.4 nM and 37.6 nM and 30.5 nM with RXF 393 renal; 65.6 nM and 78 nM and 57.3 nM in the assay with 786-0 renal; 113 nM and 84.3 nM and 68.7 nM in the assay with OVCAR-5 ovarian. Besides, the TGI in the assay on DU-145 prostate is 13200 nM and > 100000 nM and > 57800 nM; with ACHN renal, 26000 nM and > 100000 nM; in the assay with KM12 colon, 14900 nM and > 100000 nM; in the assay with NCI-H522 lung, 986 nM; with SNB-75 CNS it was 12200 nM and > 100000 nM and > 64400 nM; with SF-539 CNS, 1240 nM and 1540 nM and 1420 nM. The TGI with COLO 205 colon is 1420 nM and 2610 nM; in the assay with RXF 393 renal, 16400 nM and > 100000 nM and > 53500 nM; with 786-0 renal, 12300 nM and > 100000 nM and > 47800 nM; with OVCAR-5 ovarian, 99200 nM and > 100000 nM.
Regarding `CC1(C)CC(n2cnc(-c3ccc(F)cc3)c2-c2ccnc(N)n2)CC(C)(C)N1`, the GI50 with DU-145 prostate is above 25000 nM; in the assay on ACHN renal it was 10300 nM; in the assay on KM12 colon, 18100 nM; with NCI-H522 lung, 17600 nM; in the assay on SNB-75 CNS, above 16500 nM; in the assay on SF-539 CNS, above 25000 nM. For the same molecule, the GI50 in the assay with COLO 205 colon was 12700 nM; with RXF 393 renal, above 24100 nM; with 786-0 renal it was above 25000 nM; with OVCAR-5 ovarian, 24400 nM. Further, the TGI in the assay with DU-145 prostate, in the assay on ACHN renal, with KM12 colon, in the assay on NCI-H522 lung, with SNB-75 CNS and in the assay on SF-539 CNS was above 25000 nM each time. Besides, the TGI in the assay with COLO 205 colon, in the assay on RXF 393 renal, with 786-0 renal and in the assay on OVCAR-5 ovarian was above 25000 nM throughout.
